Refractive index data for four compounds are collected here from the NIST ThermoML archive (doi:10.1021/je5007218).

Broadly, the refractive index is a measure of how strongly the sample bends light.

± gives the expanded uncertainty stated by the source.

This series is described as follows: refractive index (Na D-line) (dimensionless). Particulars: 293.15 K; 101.33 kPa; Liquid; Standard Abbe refractometry.

`CC(C)CO` [2-methyl-1-propanol]: the refractive index was found to be 1.39563 ± 0.0004.

As to `CC#N` [acetonitrile], the refractive index was 1.34386 ± 0.00035.

With `CCCCO` [butan-1-ol], the refractive index is listed as 1.39928 ± 0.0004.

For the compound `O` [water], the refractive index was 1.33299 ± 0.00035.
